Here are results for one molecule from the NIST ThermoML archive (doi:10.1021/acs.jced.8b00600).

Numbers after ± are expanded uncertainties.

The term refractive index denotes the speed of light in vacuum divided by its phase velocity in the sample. The term mass density denotes the mass of a sample divided by its volume.

Series [1] is described as follows: refractive index (Na D-line) (dimensionless); xn = mol fraction of the nth substance listed. To be noted: 313.15 K; 101.3 kPa; Liquid; Standard Abbe refractometry; x2 = 0.333.
Series [2] can be described thus: xn = mol fraction of the nth substance listed. To be noted: 313.15 K; 101.3 kPa; Liquid; Vibrating tube method; x2 = 0.333.

Regarding `OCCCCCCO` [1,6-hexanediol] + CCC[N+](CCC)(CCC)CCC.[Br-], the refractive index in series [1] worked out at 1.47923 ± 0.002. For the same molecule, the mass density in series [2] is 1042.25 ± 2 kg/m3.
